Laboratory results reported in PMC5769417, “Single- and Multiple-Dose Trials to Determine the Pharmacokinetics, Safety, Tolerability, and Sex Effect of Oral Ginsenoside Compound K in Healthy Chinese Volunteers” (Frontiers in Pharmacology, 2018).
Read-outs that look alike come from different tables or passages of the source.

Key:
[1] = Single-dose trial, plasma pharmacokinetics; type: in vivo, human; conditions: for Tmax / half-life / AUC(0-inf) / AUC(0-t) / MRT inf / MRT last / Cmax: both sexes, human, plasma; for Cmax: read-out: Cmax
Protocol: Single-dose pharmacokinetics: The single-dose trial was performed first. […] Drinking before and after medication was prohibited for 2 h, but the amount and time of drinking were not strictly controlled at other times. All subjects had standard lunch and dinner (unified light diet) after medication 4 and 10 h. Single-dose pharmacokinetics: […] We preserved 8 ml specimens into 10 ml centrifuge tubes and stored at −70°C for PK assessment. All samples were preserved at −70°C and analyzed with a LC-MS/MS (API 4000 LC-MS/MS, ABI Company, Foster City, CA, USA) at the Institute of Clinical Pharmacology, Central South University (Changsha, China). […] An aqueous solution of a stable internal standard (IS for CK: digoxin, Shijiaoke Biological Technology Co. Ltd., Beijing, China; IS for PPD: coumarin, Sigma-Aldrich, St. Louis, USA) and 1 M phosphate buffer were added to 0.5 ml of thawed sample, and analytical standards and quality control (QC) samples were prepared in the same matrix. All samples were treated with 2 ml of methyl tert-butyl ether (MTBE, CNW technologies GmbH, Duesseldorf, Germany) to precipitate the bulk of plasma proteins. After mechanical shock by mixing for 10 min and a subsequent centrifugation (4,000 rpm, 4°C, 10 min), 1.4 ml of the supernatant was transferred and blow-dried with nitrogen in a water bath at 40°C. Lastly, the residue was dissolved in 100 μl of mobile phase and then was subjected to a mechanical shock by mixing, and centrifuged. The supernatant was subsequently injected into the column for analysis. […] Accuracy and precision of the assay were determined by evaluating the performance of the assay controls. Over the quantification range, the accuracy of the QC samples varied from 85 to 115% and the intra- and inter-assay imprecision was <15%. PK parameters were derived according to noncompartmental analysis and actual elapsed time from dosing by WinNonlin version 6.1 (Pharsight Corporation, Mountain View, CA, USA). […] The area under the curve (AUC) from time zero to the last time point (AUClast) and the AUC extrapolated to infinity (AUCinf) were calculated using the linear trapezoidal rule. The slope (elimination rate constant, K) of the terminal phase of the plasma concentration-time profile was determined, using a weighting factor of 1, by the method of least squares (log-linear regression of at least three data points). The t1/2 was estimated as (ln2)/K. […] The apparent volume of distribution (V/F) was equal to (CL/F)/K. The mean residence time (MRT) was calculated as the area under the first moments curve (AUMC) divided by AUC. The dose-normalized PK parameters e.g., Cmax/D and AUClast/D, were obtained by dividing each PK result by the administered dose. The cumulative excretion rate was calculated as the amount of unchanged drug in the urine over a time interval divided by the dose and was expressed as thousand points (‰).

CYP3A4 = tested on: CYP3A4; parameters: method as in Xiao et al., 2016; conditions: human liver microsomes, human recombinant CYPs; ref Xiao et al., 2016; cited from earlier work
[2] = single-dose trial, 25 mg oral, fasting
[3] = single-dose trial, 50 mg oral, fasting
[4] = single-dose trial, 100 mg oral, fasting
[5] = single-dose trial, 200 mg oral, fasting
[6] = single-dose trial, 400 mg oral, fasting
[7] = single-dose trial, 600 mg oral, fasting
[8] = single-dose trial, 800 mg oral, fasting

Structure (SMILES): CC(C)=CCC[C@](C)(OC1O[C@H](CO)[C@@H](O)[C@H](O)[C@H]1O)[C@H]1CC[C@]2(C)[C@@H]1[C@H](O)C[C@@H]1[C@@]3(C)CC[C@H](O)C(C)(C)[C@@H]3CC[C@]12C (stereo partly drawn) [CK, 20-O-beta-D-glucopyranosyl-20(S)-protopanaxadiol]
- Tmax ([1]; oral, both trials, all doses, read-out: range of time to maximum concentration (Tmax)): 1.5 to 6 h
- Tmax ([1]; oral, medians, both trials, read-out: Tmax in this study): 2.5 to 3.8 h
- half-life ([1]; oral, single-dose trial, 25–800 mg, read-out: mean t1/2 across the dose groups): 13.5 to 26.2 h
- Tmax ([1]; oral, single-dose trial, 25–800 mg, read-out: median Tmax across the dose groups): 2.5 to 3.3 h
- Tmax ([1]; po, 25 mg, single-dose trial, 25 mg oral, fasting, read-out: Tmax, median (range)): 3 h
- Tmax ([1]; po, 50 mg, single-dose trial, 50 mg oral, fasting, read-out: Tmax, median (range)): 3 h
- Tmax ([1]; po, 100 mg, single-dose trial, 100 mg oral, fasting, read-out: Tmax, median (range)): 3 h
- Tmax ([1]; po, 200 mg, single-dose trial, 200 mg oral, fasting, read-out: Tmax, median (range)): 3.3 h
- Tmax ([1]; po, 400 mg, single-dose trial, 400 mg oral, fasting, read-out: Tmax, median (range)): 3 h
- AUC(0-inf) [1, 2]: 1270 ± 276 ng·h/mL
- AUC(0-t) [1, 2]: 1230 ± 267 ng·h/mL
- MRT inf [1, 2]: 10.9 ± 1.9 h
- MRT last [1, 2]: 8.9 ± 1.3 h
- Cmax [1, 2]: 175 ± 35.1 ng/mL
- half-life ([1]; single-dose trial, 25 mg oral, fasting, read-out: t1/2 (converted)): 13.5 ± 0.6 h
- AUC(0-inf) [1, 3]: 2250 ± 861 ng·h/mL
- AUC(0-t) [1, 3]: 2120 ± 770 ng·h/mL
- MRT inf [1, 3]: 12.5 ± 2.4 h
- MRT last [1, 3]: 9.1 ± 0.7 h
- Cmax [1, 3]: 300 ± 98.5 ng/mL
- half-life ([1]; single-dose trial, 50 mg oral, fasting, read-out: t1/2 (converted)): 15.9 ± 4.2 h
- AUC(0-inf) [1, 4]: 2820 ± 1440 ng·h/mL
- AUC(0-t) [1, 4]: 2760 ± 1420 ng·h/mL
- MRT inf [1, 4]: 13.7 ± 1 h
- MRT last [1, 4]: 11.4 ± 0.9 h
- Cmax [1, 4]: 351 ± 180 ng/mL
- half-life ([1]; single-dose trial, 100 mg oral, fasting, read-out: t1/2 (converted)): 22.4 ± 3.3 h
- AUC(0-inf) [1, 5]: 6090 ± 3600 ng·h/mL
- AUC(0-t) [1, 5]: 5960 ± 3520 ng·h/mL
- MRT inf [1, 5]: 13.8 ± 1.6 h
- MRT last [1, 5]: 11.5 ± 1.4 h
- Cmax [1, 5]: 734 ± 408 ng/mL
- half-life ([1]; single-dose trial, 200 mg oral, fasting, read-out: t1/2 (converted)): 21.6 ± 5.5 h
- AUC(0-inf) [1, 6]: 8240 ± 2050 ng·h/mL
- AUC(0-t) [1, 6]: 8100 ± 2020 ng·h/mL
- MRT inf [1, 6]: 14 ± 1.5 h
- MRT last [1, 6]: 11.9 ± 1.1 h
- Cmax [1, 6]: 1030 ± 295 ng/mL
- half-life ([1]; single-dose trial, 400 mg oral, fasting, read-out: t1/2 (converted)): 22.3 ± 4 h
- AUC(0-inf) [1, 7]: 9280 ± 4240 ng·h/mL
- AUC(0-t) [1, 7]: 9090 ± 4200 ng·h/mL
- MRT inf [1, 7]: 15.9 ± 2.8 h
- MRT last [1, 7]: 12.7 ± 0.9 h
- Cmax [1, 7]: 1160 ± 466 ng/mL
- half-life ([1]; single-dose trial, 600 mg oral, fasting, read-out: t1/2 (converted)): 26.2 ± 6.3 h
- AUC(0-inf) [1, 8]: 9200 ± 4180 ng·h/mL
- AUC(0-t) [1, 8]: 8990 ± 4100 ng·h/mL
- MRT inf [1, 8]: 14.7 ± 2.6 h
- MRT last [1, 8]: 12 ± 1.8 h
- Cmax [1, 8]: 1180 ± 445 ng/mL
- half-life ([1]; single-dose trial, 800 mg oral, fasting, read-out: t1/2 (converted)): 25.7 ± 3 h
- CL/F [1, 2]: 20.5 ± 4.7 l·h ^−1
- V/F [1, 2]: 397 ± 86 L
- CL/F [1, 3]: 25.9 ± 11.2 l·h ^−1
- V/F [1, 3]: 559 ± 185 L
- CL/F [1, 4]: 44.5 ± 21.6 l·h ^−1
- V/F [1, 4]: 1381 ± 546 L
- CL/F [1, 5]: 47.7 ± 31.2 l·h ^−1
- V/F [1, 5]: 1287 ± 563 L
- CL/F [1, 6]: 51.2 ± 12.3 l·h ^−1
- V/F [1, 6]: 1613 ± 379 L
- CL/F [1, 7]: 76.1 ± 32.1 l·h ^−1
- V/F [1, 7]: 3057 ± 2094 L
- CL/F [1, 8]: 106 ± 50.3 l·h ^−1
- V/F [1, 8]: 3993 ± 2136 L
- inhibition of CYP3A4 (CYP3A4): moderate inhibitor
- substrate of CYP3A4 (CYP3A4): substrate
